Measured values from patent publication US10335392B2, “Cyclic compounds useful as modulators of TNF α” (BRISTOL-MYERS SQUIBB COMPANY, priority 2015, dated 2019).

Target: TNFα (Homo sapiens (Human), UniProt P01375)
Assay: TNF induced HEK-Blue assay
Type: cell-based
Details: TNFα 0.5 ng/ml; HEK-Blue-CD40L cells, NF-kB-driven secreted alkaline phosphatase reporter; 18 h
Description: TNF or CD40L-Induced HEK-Blue Assay
Test compounds serially diluted in DMSO were plated in an assay plate (LABCYTE, Cat. # LP-0200) at final concentrations ranging from 0.004 μM to 25 μM. TNFα (final concentration 0.5 ng/ml) or CD40L (final concentration 30 ng/ml) in assay buffer [DMEM, 4.5 g/l glucose (Gibco, Cat. 21063-029), 10% FBS (Sigma, F4135), 1% Penicillin-Streptomycin (Gibco, Cat. 15140-122), 1% Anti-Anti (Gibco, Cat. 15240-112) and 2 mM L-glutamine (Gibco, Cat. 25030-081)] was then added to the assay plate. After a 30 minute pre-incubation at 37° C. and 5% CO2, HEK-Blue™-CD40L cells (INVIVOGEN, Cat. Code hkb-cd40) containing a NF-kB-driven secreted alkaline phosphatase reporter gene were seeded into the assay plate at a density of 20,000 cells per well. This plate was then incubated for 18 h at 37° C. and 5% CO2. Secreted alkaline phosphatase expression was measured using QUANTI-Blue™ (INVIVOGEN, Cat. Code rep-qb1) according to manufacturer's specifications and the assay plate was read on a PerkinElmer Envision at 620 nm.
Inhibition data for the test compound over a range of concentrations was plotted as percentage inhibition of the test compound (100%=maximum inhibition). IC50 values were determined after correcting for background [(sample read−mean of low control)/(mean of high control−mean of low control)] where by the low control is DMSO without stimulation and high control is DMSO with stimulation. The IC50 is defined as the concentration of test compound which produces 50% inhibition and was quantified using the 4 parameter logistic equation to fit the data.

Chain of TNFα (P01375 77-233): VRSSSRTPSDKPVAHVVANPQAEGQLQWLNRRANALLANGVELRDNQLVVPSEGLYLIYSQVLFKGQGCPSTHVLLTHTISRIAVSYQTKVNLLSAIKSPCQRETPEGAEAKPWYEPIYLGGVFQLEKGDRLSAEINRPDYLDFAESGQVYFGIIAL

SMILES	IC50 [nM]
CNC(=O)c1ccc(-c2cc3c(cc2F)nc2n3[C@@H](c3ccccc3OC(F)F)[C@H]3C[C@@H]23)cn1 [Example 8, 5-((1aR,8R,8aS)-8-(2-(difluoromethoxy)phenyl)-4-fluoro-1,1a,8,8a-tetrahydrobenzo[d]cyclopropa[3,4]pyrrolo[1,2-a]imidazol-5-yl)-N-methylpicolinamide]	1000 to 10000
CC(C)(O)c1ccc(-c2cc3c(cc2F)nc2n3[C@@H](c3ccccc3OC(F)F)[C@H]3C[C@@H]23)cc1 [Example 12, 2-(4-((1aR,8R,8aS)-8-(2-(difluoromethoxy)phenyl)-4-fluoro-1,1a,8,8a-tetrahydrobenzo[d]cyclopropa[3,4]pyrrolo[1,2-a]imidazol-5-yl)phenyl)propan-2-ol]	< 1000
CC(C)(C)OC(=O)N1CC=C(c2cc3c(cc2F)nc2n3[C@@H](c3ccccc3OC(F)F)[C@H]3C[C@@H]23)CC1 [Example 17, tert-butyl 4-((1aR,8R,8aS)-8-(2-(difluoromethoxy)phenyl)-4-fluoro-1,1a,8,8a-tetrahydrobenzo[d]cyclopropa[3,4]pyrrolo[1,2-a]imidazol-5-yl)-3,6-dihydropyridine-1(2H)-carboxylate]	1000 to 10000
NC(=O)c1ccc(-c2cc3c(cc2F)nc2n3[C@H](c3ccccc3OC(F)F)[C@@H]3C[C@H]23)cn1 [Example 19, 5-((1aS,8S,8aR)-8-(2-(difluoromethoxy)phenyl)-4-fluoro-1,1a,8,8a-tetrahydrobenzo[d]cyclopropa[3,4]pyrrolo[1,2-a]imidazol-5-yl)picolinamide]	1000 to 10000
NC(=O)c1ccc(-c2cc3c(cc2F)nc2n3[C@@H](c3ccccc3OC(F)F)[C@@H]3C[C@H]23)cn1 [Example 22, 5-((1aS,8R,8aR)-8-(2-(difluoromethoxy)phenyl)-4-fluoro-1,11a,8,8a-tetrahydrobenzo[d]cyclopropa[3,4]pyrrolo[1,2-a]imidazol-5-yl)picolinamide]	< 1000
CC(C)(O)c1ncc(-c2cc3c(cc2F)nc2n3[C@@H](c3ccccc3Oc3ccccc3)[C@@H]3C[C@H]23)cn1 [Example 27, 2-(5-((1aS,8R,8aR)-4-fluoro-8-(2-phenoxyphenyl)-1,1a,8,8a-tetrahydrobenzo[d]cyclopropa[3,4]pyrrolo[1,2-a]imidazol-5-yl)pyrimidin-2-yl)propan-2-ol]	1000 to 10000
CC(C)(O)c1ncc(-c2cc3c(cc2F)nc2n3[C@H](c3ccccc3Oc3ccccc3)[C@@H]3C[C@H]23)cn1 [Example 28, 2-(5-((1aS,8S,8aR)-4-fluoro-8-(2-phenoxyphenyl)-1,1a,8,8a-tetrahydrobenzo[d]cyclopropa[3,4]pyrrolo[1,2-a]imidazol-5-yl)pyrimidin-2-yl)propan-2-ol]	1000 to 10000
CC(C)(O)c1ncc(-c2cc3c(cc2F)nc2n3[C@@H](c3ccccc3Oc3ccccc3F)[C@@H]3C[C@H]23)cn1 [Example 29, 2-(5-((1aS,8R,8aR)-4-fluoro-8-(2-(2-fluorophenoxy)phenyl)-1,1a,8,8a-tetrahydrobenzo[d]cyclopropa[3,4]pyrrolo[1,2-a]imidazol-5-yl)pyrimidin-2-yl)propan-2-ol]	1000 to 10000
CC(C)(O)c1ncc(-c2cc3c(cc2F)nc2n3[C@H](c3ccccc3Oc3ccccc3F)[C@@H]3C[C@H]23)cn1 [Example 30, 2-(5-((1aS,8S,8aR)-4-fluoro-8-(2-(2-fluorophenoxy)phenyl)-1,1a,8,8a-tetrahydrobenzo[d]cyclopropa[3,4]pyrrolo[1,2-a]imidazol-5-yl)pyrimidin-2-yl)propan-2-ol]	10000 to 25000

Results, then the molecule that gave them:

IC50 [nM]	SMILES
< 1000	O=C1CN(c2ncc(-c3cc4c(cc3F)nc3n4[C@@H](c4ccccc4OC(F)F)[C@H]4C[C@@H]34)cn2)CCN1 [Example 9, 4-(5-((1aR,8R,8aS)-8-(2-(difluoromethoxy)phenyl)-4-fluoro-1,1a,8,8a-tetrahydrobenzo[d]cyclopropa[3,4]pyrrolo[1,2-a]imidazol-5-yl)pyrimidin-2-yl)piperazin-2-one]
1000 to 10000	N#Cc1ccc(-c2cc3c(cc2F)nc2n3[C@@H](c3ccccc3OC(F)F)[C@H]3C[C@@H]23)cn1 [Example 10, 5-((1aR,8R,8aS)-8-(2-(difluoromethoxy)phenyl)-4-fluoro-1,1a,8,8a-tetrahydrobenzo[d]cyclopropa[3,4]pyrrolo[1,2-a]imidazol-5-yl)picolinonitrile]
< 1000	CC(C)(O)c1ccc(-c2cc3c(cc2F)nc2n3[C@@H](c3ccccc3OC(F)F)[C@H]3C[C@@H]23)cn1 [Example 13, 2-(5-((1aR,8R,8aS)-8-(2-(difluoromethoxy)phenyl)-4-fluoro-1,1a,8,8a-tetrahydrobenzo[d]cyclopropa[3,4]pyrrolo[1,2-a]imidazol-5-yl)pyridin-2-yl)propan-2-ol]
< 1000	OC1(c2ncc(-c3cc4c(cc3F)nc3n4[C@@H](c4ccccc4OC(F)F)[C@H]4C[C@@H]34)cn2)COC1 [Example 14, 3-(5-((1aR,8R,8aS)-8-(2-(difluoromethoxy)phenyl)-4-fluoro-1,1a,8,8a-tetrahydrobenzo[d]cyclopropa[3,4]pyrrolo[1,2-a]imidazol-5-yl)pyrimidin-2-yl)oxetan-3-ol]
< 1000	O=S1(=O)CCN(c2ncc(-c3cc4c(cc3F)nc3n4[C@@H](c4ccccc4OC(F)F)[C@H]4C[C@@H]34)cn2)CC1 [Example 15, 4-(5-((1aR,8R,8aS)-8-(2-(difluoromethoxy)phenyl)-4-fluoro-1,1a,8,8a-tetrahydrobenzo[d]cyclopropa[3,4]pyrrolo[1,2-a]imidazol-5-yl)pyrimidin-2-yl) thiomorpholine 1,1-dioxide]
1000 to 10000	CC(C)(O)Cn1cc(-c2cc3c(cc2F)nc2n3[C@@H](c3ccccc3OC(F)F)[C@H]3C[C@@H]23)cn1 [Example 16, 1-(4-((1aR,8R,8aS)-8-(2-(difluoromethoxy)phenyl)-4-fluoro-1,1a,8,8a-tetrahydrobenzo[d]cyclopropa[3,4]pyrrolo[1,2-a]imidazol-5-yl)-1H-pyrazol-1-yl)-2-methylpropan-2-ol]
< 1000	O=C(O)CN1CCN(c2ncc(-c3cc4c(cc3F)nc3n4[C@H](c4ccccc4OC(F)F)[C@@H]4C[C@H]34)cn2)CC1 [Example 18, 2-(4-(5-((1aS,8S,8aR)-8-(2-(difluoromethoxy)phenyl)-4-fluoro-1,1a,8,8a-tetrahydrobenzo[d]cyclopropa[3,4]pyrrolo[1,2-a]imidazol-5-yl)pyrimidin-2-yl)piperazin-1-yl)acetic acid]
< 1000	Fc1cc2nc3n(c2cc1-c1cnc(N2CCOCC2)nc1)[C@@H](c1ccccc1OC(F)F)[C@@H]1C[C@H]31 [Example 31, 4-(5-((1aS,8R,8aR)-8-(2-(difluoromethoxy)phenyl)-4-fluoro-1,1a,8,8a-tetrahydrobenzo[d]cyclopropa[3,4]pyrrolo[1,2-a]imidazol-5-yl)pyrimidin-2-yl) morpholine]
1000 to 10000	Fc1cc2nc3n(c2cc1-c1cnc(N2CCOCC2)nc1)[C@H](c1ccccc1OC(F)F)[C@@H]1C[C@H]31 [Example 32, 4-(5-((1aS,8S,8aR)-8-(2-(difluoromethoxy)phenyl)-4-fluoro-1,1a,8,8a-tetrahydrobenzo[d]cyclopropa[3,4]pyrrolo[1,2-a]imidazol-5-yl)pyrimidin-2-yl) morpholine]
